Laboratory results from patent US20120302503A1, “PEPTIDES FOR PREVENTING OR TREATING A DISEASE OR DISORDER ASSOCIATED WITH CBP OR p300 MISREGULATION, AND METHODS FOR USE AND IDENTIFICATION THEREOF” (AML Therapeutics, LLC, priority 2011, published 2012).
Where two headings read alike, the source gives them in different places. Square brackets hold non-standard residues; d marks the D form. Peptide text beside a SMILES is read from it. d(pS) = N[C@H](COP(=O)(O)O)C(=O)O; pS = N[C@@H](COP(=O)(O)O)C(=O)O; dNle = CCCC[C@@H](N)C(=O)O

Test system: THP-1 cell line
Test: Cell proliferation assay (Promega Cell Titer-Glo) using cell line THP-1
Format: cell-based
Protocol: To determine the in vitro IC50 of two peptides, and a positive control, cisplatin, against the THP-1 cell line, cell growth is determined using Promega's Cell Titer-Glo® assay. THP-1 tumor cells are placed in a 96-well microculture plate (Costar white, flat bottom #3917) at 20,000 cells per well, in a total volume of 90 μL/well. After 24 hours of incubation in a humidified incubator at 37 C with 5% CO2 and 95% air, 10 μL of 10×, serially diluted test agents in growth medium are added to each well. […] 100 μL of Cell Titer-Glo® reagent are added to each well. The plate is shaken for 2 minutes and then left to equilibrate for 10 minutes before determining luminescence on a Tecan GENios microplate reader. Percent inhibition of cell growth is calculated relative to untreated control wells. All tests are performed in duplicate at each concentration level. The IC50 value for the test agents is estimated using Prism 3.03 by curve-fitting the data using the following four parameter-logistic equation: where Top is the maximal % of control absorbance, Bottom is the minimal % of control absorbance at the highest agent concentration, Y is the % of control absorbance, X is the agent concentration, IC50 is the concentration of agent that inhibits cell growth by 50% compared to the control cells, and n is the slope of the curve.

Compound | IC50 (24 h) [µM] | IC50 (THP-1 tumor cells, 96 total hours of culture, Cell Titer-Glo luminescence, Table 1, read-out: IC50 values) [µM] | IC50 (THP-1 tumor cells, 96 total hours of culture, Cell Titer-Glo luminescence, Table 2, read-out: IC50 values) [µM]
CC[C@@H](C)[C@@H](NC(=O)[C@@H](CCCCN)NC(=O)[C@@H](CCC(=O)O)NC(=O)[C@@H](CC(C)C)NC(=O)[C@@H](CCC(=O)O)NC(=O)[C@@H](CC(C)C)NC(=O)[C@@H](CC(C)C)NC(=O)[C@@H](CC(C)C)NC(=O)[C@@H](CCSC)NC(=O)[C@@H](CO)NC(=O)[C@H](NC(=O)[C@@H](CCC(=O)O)NC(=O)[C@@H](CC(N)=O)NC(=O)[C@@H](CCC(=O)O)NC(=O)[C@@H](CC(C)C)NC(=O)CNC(=O)[C@@H](Cc1ccc(O)cc1)NC(=O)CNC(=O)[C@@H](CCCNC(=N)N)NC(=O)[C@@H](CCCCN)NC(=O)[C@@H](CCCCN)NC(=O)[C@@H](CCCNC(=N)N)NC(=O)[C@@H](CCCNC(=N)N)NC(=O)[C@@H](CCC(N)=O)NC(=O)[C@@H](CCCNC(=N)N)NC(=O)[C@@H](CCCNC(=N)N)NC(=O)[C@H](N)CCCNC(=N)N)[C@H](C)O)C(=O)N[C@H](CCCNC(=N)N)C(N)=O [SEQ ID NO: 16, dR dR dR dQ dR dR dK dK dR G dY G dL dE dN dE dT dS dM dL dL dL dE dL dE dK dI dR amide] (H-[dR][dR][dR][dQ][dR][dR][dK][dK][dR]G[dY]G[dL][dE][dN][dE][dT][dS][dM][dL][dL][dL][dE][dL][dE][dK][dI][dR]-NH2; N-terminus assumed) | 21.6 |  | 
CC[C@@H](C)[C@@H](NC(=O)[C@@H](CC(C)C)NC(=O)[C@@H](CC(N)=O)NC(=O)[C@@H](CC(=O)O)NC(=O)[C@@H](CC(C)C)NC(=O)[C@@H](CCSC)NC(=O)[C@@H](CO)NC(=O)[C@H](NC(=O)[C@@H](CCC(=O)O)NC(=O)[C@@H](CC(N)=O)NC(=O)[C@@H](CCC(=O)O)NC(=O)[C@@H](CC(C)C)NC(=O)CNC(=O)[C@@H](CCCNC(=N)N)NC(=O)[C@@H](CCCNC(=N)N)NC(=O)[C@@H](CCCNC(=N)N)NC(=O)[C@@H](CCCNC(=N)N)NC(=O)[C@@H](CCCNC(=N)N)NC(=O)[C@@H](CCCNC(=N)N)NC(=O)[C@@H](CCCNC(=N)N)NC(=O)[C@@H](CCCNC(=N)N)NC(=O)[C@H](N)CCCNC(=N)N)[C@H](C)O)C(=O)N[C@H](CCCCN)C(=O)N[C@H](CCCNC(=N)N)C(=O)N[C@H](Cc1ccc(O)cc1)C(=O)N[C@@H](COP(=O)(O)O)C(=O)NCC(N)=O [SEQ ID NO: 14, dR dR dR dR dR dR dR dR dR G dL dE dN dE dT dS dM dL dD dN dL dI dK dR dY pS G amide] (H-[dR][dR][dR][dR][dR][dR][dR][dR][dR]G[dL][dE][dN][dE][dT][dS][dM][dL][dD][dN][dL][dI][dK][dR][dY][pS]G-NH2; N-terminus assumed) | 13.9 |  | 
CC[C@@H](C)[C@@H](NC(=O)[C@@H](CC(C)C)NC(=O)[C@@H](CC(N)=O)NC(=O)[C@@H](CC(=O)O)NC(=O)[C@@H](CC(C)C)NC(=O)[C@@H](CCSC)NC(=O)[C@@H](CO)NC(=O)[C@H](NC(=O)[C@@H](CCC(=O)O)NC(=O)[C@@H](CC(N)=O)NC(=O)[C@@H](CCC(=O)O)NC(=O)[C@@H](CC(C)C)NC(=O)CNC(=O)[C@@H](CCCNC(=N)N)NC(=O)[C@@H](CCCNC(=N)N)NC(=O)[C@@H](CCCNC(=N)N)NC(=O)[C@@H](CCCNC(=N)N)NC(=O)[C@@H](CCCNC(=N)N)NC(=O)[C@@H](CCCNC(=N)N)NC(=O)[C@@H](CCCNC(=N)N)NC(=O)[C@@H](CCCNC(=N)N)NC(=O)[C@H](N)CCCNC(=N)N)[C@H](C)O)C(=O)N[C@H](CCCCN)C(=O)N[C@H](CCCNC(=N)N)C(=O)N[C@H](Cc1ccc(O)cc1)C(=O)N[C@H](COP(=O)(O)O)C(=O)NCC(N)=O [SEQ ID NO: 13, dR dR dR dR dR dR dR dR dR G dL dE dN dE dT dS dM dL dD dN dL dI dK dR dY dpS G amide] (H-[dR][dR][dR][dR][dR][dR][dR][dR][dR]G[dL][dE][dN][dE][dT][dS][dM][dL][dD][dN][dL][dI][dK][dR][dY][d(pS)]G-NH2; N-terminus assumed) | 17.5 |  | 
CCCC[C@@H](NC(=O)[C@@H](CCSC)NC(=O)[C@@H](CO)NC(=O)[C@H](NC(=O)[C@@H](CCC(=O)O)NC(=O)[C@@H](CC(N)=O)NC(=O)[C@@H](CCC(=O)O)NC(=O)[C@@H](CC(C)C)NC(=O)CNC(=O)[C@@H](CCCNC(=N)N)NC(=O)[C@@H](CCCNC(=N)N)NC(=O)[C@@H](CCCNC(=N)N)NC(=O)[C@@H](CCCNC(=N)N)NC(=O)[C@@H](CCCNC(=N)N)NC(=O)[C@@H](CCCNC(=N)N)NC(=O)[C@@H](CCCNC(=N)N)NC(=O)[C@@H](CCCNC(=N)N)NC(=O)[C@H](N)CCCNC(=N)N)[C@H](C)O)C(=O)N[C@H](CC(=O)O)C(=O)N[C@H](CC(N)=O)C(=O)N[C@H](CC(C)C)C(=O)N[C@@H](C(=O)N[C@H](CCCCN)C(=O)N[C@H](CCCNC(=N)N)C(=O)N[C@H](Cc1ccc(O)cc1)C(=O)N[C@@H](COP(=O)(O)O)C(=O)NCC(N)=O)[C@H](C)CC [SEQ ID NO: 15, dR dR dR dR dR dR dR dR dR G dL dE dN dE dT dS dM dNIe dD dN dL dI dK dR dY pS G amide] (H-[dR][dR][dR][dR][dR][dR][dR][dR][dR]G[dL][dE][dN][dE][dT][dS][dM][dNle][dD][dN][dL][dI][dK][dR][dY][pS]G-NH2; N-terminus assumed) | 14.1 |  | 
N.N.[Cl][Pt][Cl] [Cisplatin, cisplatin, reference compound] |  | 1.6 | 1.6
